In patent US9944608B2, “Herbicidal pyridazinone derivatives” (Syngenta Participations AG, priority 2014, dated 2018):

Legend:
Assay in all cases: B1 Post-emergence efficacy, glasshouse pot test
Assay type in all cases: in vivo
Conditions in all cases: post-emergence application, 1000 g/ha, evaluated after 13 days
Setaria faberi (SETFA) = test system: Setaria faberi (SETFA)
Method: (§1) B1 Post-Emergence Efficacy Seeds of a variety of test species are sown in standard soil in pots:—Solanum nigrum (SOLNI), Amaranthus retoflexus (AMARE), Setaria faberi (SETFA), Alopecurus myosuroides (ALOMY), Echinochloa crus-galli (ECHCG), Ipomoea hederacea (IPOHE), Lolium perenne (LOLPE). After 8 days cultivation (post-emergence) under controlled conditions in a glasshouse (at 24/16° C., day/night; 14 hours light; 65% humidity), the plants are sprayed with an aqueous spray solution derived from the formulation of the technical active ingredient in acetone/water (50:50) solution containing 0.5% Tween 20 (polyoxyethelyene sorbitan monolaurate, CAS RN 9005-64-5). Compounds are applied at 1000 g/ha. The test plants are then grown in a glasshouse under controlled conditions in a glasshouse (at 24/16° C., day/night; 14 hours light; 65% humidity) and watered twice daily. After 13 days, the test is evaluated for the percentage damage caused to the plant. The biological activities are assessed on a five point scale (5=80-100%; 4=60-79%; 3=40-59%; 2=20-39%; 1=0-19%). A blank value in the table is indicative that the compound was not tested on that species.

Solanum nigrum (SOLNI) = test system: Solanum nigrum (SOLNI)
Method: as §1

[1] = test system: Amaranthus retoflexus (AMARE)
Method: as §1

[2] = test system: Ipomoea hederacea (IPOHE)
Method: as §1

Lolium perenne (LOLPE) = test system: Lolium perenne (LOLPE)
Method: as §1

[3] = test system: Echinochloa crus-galli (ECHCG)
Method: as §1

| Compound | SETFA: percentage damage caused to the plant (five point scale) (Setaria faberi (SETFA)) | SOLNI: percentage damage caused to the plant (five point scale) (Solanum nigrum (SOLNI)) | AMARE: percentage damage caused to the plant (five point scale) [1] | IPOHE: percentage damage caused to the plant (five point scale) [2] | LOLPE: percentage damage caused to the plant (five point scale) (Lolium perenne (LOLPE)) | ECHCG: percentage damage caused to the plant (five point scale) [3] |
| --- | --- | --- | --- | --- | --- | --- |
| Cc1nn(C)c(=O)c(-c2ccccc2OCc2ccccc2)c1O [Compound 1.002] | 1 (1=0-19%) | 5 (5=80-100%) | 4 (4=60-79%) | 1 (1=0-19%) | 1 (1=0-19%) | 1 (1=0-19%) |
| Cc1nn(C)c(=O)c(-c2cccc(Cl)c2OCc2ccccc2)c1O [Compound 1.003] | 3 (3=40-59%) | 5 (5=80-100%) | 4 (4=60-79%) | 5 (5=80-100%) | 5 (5=80-100%) | 5 (5=80-100%) |
| Cc1nn(C)c(=O)c(-c2c(F)ccc(Cl)c2OCc2ccccc2)c1O [Compound 1.004] | 5 (5=80-100%) | 5 (5=80-100%) | 5 (5=80-100%) | 5 (5=80-100%) | 5 (5=80-100%) | 5 (5=80-100%) |
| Cc1nn(C)c(=O)c(-c2c(Cl)ccc(Cl)c2OCc2ccc(Cl)c(Cl)c2)c1O [Compound 1.005] | 5 (5=80-100%) | 5 (5=80-100%) | 5 (5=80-100%) | 5 (5=80-100%) | 5 (5=80-100%) | 5 (5=80-100%) |
| Cc1nn(C)c(=O)c(-c2c(Cl)cc(Cl)cc2OCc2ccccc2)c1O [Compound 1.006] | 3 (3=40-59%) | 5 (5=80-100%) | 5 (5=80-100%) | 5 (5=80-100%) | 2 (2=20-39%) | 3 (3=40-59%) |
| CCc1nn(C)c(=O)c(-c2c(Cl)ccc(Cl)c2OCc2ccccc2)c1O [Compound 1.007] | 5 (5=80-100%) | 5 (5=80-100%) | 5 (5=80-100%) | 5 (5=80-100%) | 4 (4=60-79%) | 5 (5=80-100%) |
| Cn1nc(C2CC2)c(O)c(-c2c(Cl)ccc(Cl)c2OCc2ccccc2)c1=O [Compound 1.009] | 5 (5=80-100%) | 5 (5=80-100%) | 5 (5=80-100%) | 5 (5=80-100%) | 5 (5=80-100%) | 5 (5=80-100%) |
| CCc1nn(C)c(=O)c(-c2c(F)ccc(Cl)c2OCc2ccccc2)c1O [Compound 1.010] | 3 (3=40-59%) | 5 (5=80-100%) | 5 (5=80-100%) | 5 (5=80-100%) | 4 (4=60-79%) | 4 (4=60-79%) |
| Cn1nc(C2CC2)c(O)c(-c2c(F)ccc(Cl)c2OCc2ccccc2)c1=O [Compound 1.012] | 5 (5=80-100%) | 5 (5=80-100%) | 5 (5=80-100%) | 5 (5=80-100%) | 5 (5=80-100%) | 5 (5=80-100%) |
| Cc1nn(C)c(=O)c(-c2c(Cl)ccc(F)c2OCc2ccccc2)c1O [Compound 1.014] | 5 (5=80-100%) | 5 (5=80-100%) | 4 (4=60-79%) | 5 (5=80-100%) | 3 (3=40-59%) | 4 (4=60-79%) |
| Cc1nn(C)c(=O)c(-c2c(F)ccc(F)c2OCc2ccccc2)c1O [Compound 1.016] | 5 (5=80-100%) | 5 (5=80-100%) | 5 (5=80-100%) | 5 (5=80-100%) | 4 (4=60-79%) | 5 (5=80-100%) |
| CCn1nc(C)c(O)c(-c2c(F)ccc(Cl)c2OCc2ccccc2)c1=O [Compound 1.037] | 4 (4=60-79%) | 5 (5=80-100%) | 5 (5=80-100%) | 5 (5=80-100%) | 5 (5=80-100%) | 5 (5=80-100%) |
| Cc1nn(C2CC2)c(=O)c(-c2c(Cl)ccc(Cl)c2OCc2ccccc2)c1O [Compound 1.041] | 5 (5=80-100%) | 5 (5=80-100%) | 5 (5=80-100%) | 5 (5=80-100%) | 4 (4=60-79%) | 5 (5=80-100%) |
| Cc1nn(C2CC2)c(=O)c(-c2c(F)ccc(Cl)c2OCc2ccccc2)c1O [Compound 1.044] | 5 (5=80-100%) | 5 (5=80-100%) | 5 (5=80-100%) | 5 (5=80-100%) | 5 (5=80-100%) | 5 (5=80-100%) |
| COc1ccc(COc2c(Cl)ccc(Cl)c2-c2c(O)c(C)nn(C)c2=O)cc1 [Compound 1.067] | 5 (5=80-100%) | 5 (5=80-100%) | 2 (2=20-39%) | 5 (5=80-100%) | 5 (5=80-100%) | 5 (5=80-100%) |
| Cc1nn(C)c(=O)c(-c2c(Cl)cccc2OCc2ccccc2)c1O [Compound 1.068] | 4 (4=60-79%) | 5 (5=80-100%) | 3 (3=40-59%) | 4 (4=60-79%) | 2 (2=20-39%) | 4 (4=60-79%) |
| Cc1nn(C)c(=O)c(-c2c(C(F)(F)F)ccc(F)c2OCc2ccccc2)c1O [Compound 1.069] | 5 (5=80-100%) | 5 (5=80-100%) | 3 (3=40-59%) | 5 (5=80-100%) | 3 (3=40-59%) | 5 (5=80-100%) |
| Cn1nc(C2CC2)c(O)c(-c2c(C(F)(F)F)ccc(Cl)c2OCc2ccccc2)c1=O [Compound 1.070] | 5 (5=80-100%) | 5 (5=80-100%) | 5 (5=80-100%) | 5 (5=80-100%) | 5 (5=80-100%) | 5 (5=80-100%) |
| Cn1nc(C(F)(F)F)c(O)c(-c2c(C(F)(F)F)ccc(Cl)c2OCc2ccccc2)c1=O [Compound 1.071] | 5 (5=80-100%) | 5 (5=80-100%) | 3 (3=40-59%) | 5 (5=80-100%) | 3 (3=40-59%) | 4 (4=60-79%) |
| CCc1nn(C)c(=O)c(-c2c(C(F)(F)F)ccc(Cl)c2OCc2ccccc2)c1O [Compound 1.072] | 5 (5=80-100%) | 5 (5=80-100%) | 2 (2=20-39%) | 5 (5=80-100%) | 2 (2=20-39%) | 4 (4=60-79%) |
